“And” between values parts separate entries of the source, which are not always exact repeats. Identical values can stand only once.
What was measured:
[1] = Thermal gravimetric analysis (TGA), onset of thermal decomposition; format: physicochemical; conditions: under nitrogen, ramp 10° C. per minute
Protocol: TGA was performed on a Perkin-Elmer Instruments TGA Model 7 in an open platinum pan. The onset of thermal decomposition, Td, was taken as the thermal decomposition temperature of the photoacid generators and was determined under nitrogen atmosphere using a temperature ramp of 10° C. per minute. The onset temperature was determined by the intersection of tangents to the low temperature portion of the baseline and the first inflection point in the wt % vs. temperature curve.

[2] = Bio-elimination screening after a single oral dose; format: in vivo, male Sprague Dawley rats; conditions: for Total F concentration in Liver / Total F concentration in Serum: 30 mg/kg single oral dose; for parent compound recovered in the urine: within the first 28 hours post dose, 19F NMR; for bioelimination compared to PFOS: screenings in rats
Protocol: The objective of this study was to evaluate the potential for oral absorption, distribution, and serum and liver elimination rates of KO3SCF2CF2CF2CF2SO3K and LiO3SCF2CF2CF2COOLi in male Sprague Dawley rats after a single oral dose. Quantitation of fluorinated salt levels and potential metabolites in serum and liver were performed by total organic fluorine analysis.
21 male Sprague Dawley rats (Harlan), 6–8 weeks in age and weighing approximately 150–250 g were treated with a single dose of the test compound, prepared in propylene glycol (suspension of 6 mg/ml propylene glycol), via oral gavage at either 0 mg/kg (control) or 30 mg/kg body weight (Group 1) (3 animals per dose group per designated treatment period). […] Liver and serum samples were collected for total fluorine analysis on each of those days. All the specimens collected at necropsy were temporarily stored in at −70° C. A complete protocol for this study is available (Strategic Toxicology Lab Protocol Number ST-88). Urine samples were collected and analyzed by ^19F NMR on day one and day four (0–4, 4–24 and 76–100 hrs, respectively) post dose in order to determine the concentration of the respective perfluorinated anion.

[3] = Photo-DSC/DSC cationic curing activity of PAGs in Epon 828; design: PDSC Peak Max / PDSC Induction Time: unit not given here; conditions: for PDSC Energy: Epon 828, 1.0% PAG, 0.1% ITX, light exposure 5 min at 30° C.; for DSC after PDSC Onset Temp / DSC after PDSC Energy / DSC after PDSC Peak Max / PDSC Induction Time / DSC Only (dark) Energy / DSC Only (dark) Onset Temp / DSC Only (dark) Peak Max / PDSC Peak Max: Epon 828; for DSC after PDSC Onset Temp: DSC scan 10° C./minute after light exposure; for DSC after PDSC Energy / DSC after PDSC Peak Max: DSC scan after light exposure; for PDSC Induction Time: light exposure at 30° C.; for DSC Only (dark) Energy / DSC Only (dark) Onset Temp / DSC Only (dark) Peak Max: no prior light exposure; for PDSC Peak Max: time to peak maximum of curing exotherm at 30° C.
Protocol: (§1) Photo-DSC/DSC: Standard (hermetic) liquid sample pans were used. Sample size was kept in the 6 to 8 mg range. Samples were tested using a Dupont Photo-DSC/DSC instrument (available from DuPont, Wilmington, Del.). The light source was a 200 W Hg lamp that delivered about 60 mw/cm at the sample. Samples were exposed in open pans for 5 minutes to the light source at 30° C. then removed from the instrument, sealed and a standard DSC scan run at 10° C./minute to 300° C. A separate DSC experiment was carried out using a sealed sample pan and no prior light exposure to determine the dark reactivity of these PAGs. Comparison of the DSC traces before and after light exposure enables differentiation between the thermal reactivity of the PAGs (in the dark) and their photochemical activity.
(§2) This example describes photo-DSC/DSC experiments designed to quantitatively compare the relative cationic curing reactivities of PAGs of the present invention containing difunctional fluoroorganic sulfonate anions with related PAGs having identical cations and monofunctional perfluoroalkanesulfonate anions. Relative reactivities were measured in three different cationically polymerizable monomer systems, including two different types of epoxies and one vinyl ether.
(§3) The photo-DSC experiment provides information on the photo-cure speed at 30° C. as measured by the induction time (onset) and time to reach the peak maximum in the curing exotherm. […] The energy released under the curing exotherm is a measure of the extent of cure; larger values mean more cure has taken place during the light exposure. […] Comparison with the DSC traces recorded with no prior light exposure provides a measure of the increase in activity after photoactivation of the PAG.
(§4) General: Stock solutions of three cationically curable monomers were prepared as shown in Table 3 with 0.1% (w/w) isopropylthioxanthone (ITX). Epon 828 is a difunctional glycidyl ether epoxy from Shell, ERL-4221 is a difunctional cycloaliphatic epoxy from Union Carbide and VEX 5015 is a trifunctional vinyl ether from Allied Signal. Because of the low sensitivity of these compositions to room lights, all sample preparation was done with the lab lights on but the hood lights off. All PAGs were formulated at 1.0% by weight in the stock monomer/sensitizer solutions. Into a small aluminum pan was weighed 0.02 g of PAG and 0.04 g of propylene carbonate used to promote dissolution of the PAG in the monomer. The pan was heated briefly on a hot plate set at 100° C. to dissolve the PAG, then 2.0 g the stock monomer/sensitizer solution was added. The solution was briefly heated again on a hot plate set at 100° C. to allow complete mixing of the components, then the solution was allowed to cool to room temperature before using.

[4] = Photo-DSC/DSC cationic curing activity of PAGs in ERL-4221; design: PDSC Peak Max / PDSC Induction Time: unit not given here; conditions: for PDSC Energy: ERL-4221, 1.0% PAG, 0.1% ITX, light exposure 5 min at 30° C.; for DSC after PDSC Onset Temp / DSC after PDSC Energy / DSC after PDSC Peak Max / PDSC Induction Time / DSC Only (dark) Energy / DSC Only (dark) Onset Temp / DSC Only (dark) Peak Max / PDSC Peak Max: ERL-4221; for DSC after PDSC Onset Temp: DSC scan 10° C./minute after light exposure; for DSC after PDSC Energy / DSC after PDSC Peak Max: DSC scan after light exposure; for PDSC Induction Time: light exposure at 30° C.; for DSC Only (dark) Energy / DSC Only (dark) Onset Temp / DSC Only (dark) Peak Max: no prior light exposure; for PDSC Peak Max: time to peak maximum of curing exotherm at 30° C.
Protocol: as §1, §2, §3, §4

[5] = Photo-DSC/DSC cationic curing activity of PAGs in VEX 5015; design: PDSC Peak Max / PDSC Induction Time: unit not given here; conditions: for PDSC Energy: VEX 5015, 1.0% PAG, 0.1% ITX, light exposure 5 min at 30° C.; for DSC after PDSC Energy / DSC after PDSC Onset Temp / DSC after PDSC Peak Max / PDSC Induction Time / DSC Only (dark) Onset Temp / PDSC Peak Max: VEX 5015; for DSC after PDSC Energy / DSC after PDSC Onset Temp / DSC after PDSC Peak Max: DSC scan after light exposure; for DSC after PDSC Onset Temp / DSC after PDSC Peak Max / DSC Only (dark) Onset Temp: two values = two exotherms; for PDSC Induction Time: light exposure at 30° C.; for DSC Only (dark) Onset Temp: no prior light exposure; for PDSC Peak Max: time to peak maximum of curing exotherm at 30° C.
Protocol: as §1, §2, §3, §4

SMILES	PDSC Energy [3] [J/g]	DSC after PDSC Onset Temp [3] [C.°]	DSC after PDSC Energy [3] [J/g]	DSC after PDSC Peak Max [3] [°C]	PDSC Induction Time [3]	DSC Only (dark) Energy [3] [J/g]	DSC Only (dark) Onset Temp [3] [C.°]	DSC Only (dark) Peak Max [3] [°C]	PDSC Peak Max [3]	PDSC Energy [4] [J/g]	DSC after PDSC Onset Temp [4] [C.°]	DSC after PDSC Energy [4] [J/g]	DSC after PDSC Peak Max [4] [°C]	PDSC Induction Time [4]	DSC Only (dark) Energy [4] [J/g]	DSC Only (dark) Onset Temp [4] [C.°]	DSC Only (dark) Peak Max [4]	PDSC Peak Max [4]	PDSC Energy [5] [J/g]	DSC after PDSC Energy [5] [J/g]	other results
O=S(=O)([O-])C(F)(F)C(F)(F)N(C(F)(F)F)C(F)(F)C(F)(F)S(=O)(=O)[O-].c1ccc([S+](c2ccccc2)c2ccccc2)cc1.c1ccc([S+](c2ccccc2)c2ccccc2)cc1 [PAG-3, [(C6H5)3S^+]2CF3N(CF2CF2SO3^−)2]	–	–	–	–	–	–	–	–	–	–	–	–	–	–	–	–	–	–	–	–	onset of thermal decomposition (TGA) [1]: 411 °C
O=S(=O)([O-])C(F)(F)C(F)(F)C(F)(F)C(F)(F)S(=O)(=O)[O-].[K+].[K+] [KO3SCF2CF2CF2CF2SO3K, KO3S(CF2)4SO3K]	–	–	–	–	–	–	–	–	–	–	–	–	–	–	–	–	–	–	–	–	Total F concentration in Liver ([2]; rat, Day 0): ND (ND = not detectable within limits of test (0.3 ppm)); Total F concentration in Serum ([2]; rat, Day 0): (ND) (ND = not detectable within limits of test (0.3 ppm)); Total F concentration in Liver ([2]; rat, Day 1): 0.6 ppm; Total F concentration in Serum ([2]; rat, Day 1): (ND) (ND = not detectable within limits of test (0.3 ppm)); Total F concentration in Liver ([2]; rat, Day 4): ND (ND = not detectable within limits of test (0.3 ppm)); Total F concentration in Serum ([2]; rat, Day 4): (ND) (ND = not detectable within limits of test (0.3 ppm)); Total F concentration in Liver ([2]; rat, Day 8): ND (ND = not detectable within limits of test (0.3 ppm)); Total F concentration in Serum ([2]; rat, Day 8): (ND) (ND = not detectable within limits of test (0.3 ppm)); Total F concentration in Liver ([2]; rat, Day 14): ND (ND = not detectable within limits of test (0.3 ppm)); Total F concentration in Serum ([2]; rat, Day 14): (ND) (ND = not detectable within limits of test (0.3 ppm)); parent compound recovered in the urine ([2]; rat, single oral dose): 11%; bioelimination compared to PFOS [2]: more readily bioeliminate compared to PFOS
CC(C)(C)c1ccc([I+]c2ccc(C(C)(C)C)cc2)cc1.O=S(=O)([O-])C(F)(F)C(F)(F)C(F)(F)C(F)(F)F [DTBPI-ONf, reference compound]	10	100	558	190	12.5	606	175	232	21.2	5	50	577	148	15.7	566	150	192	24	242	31	DSC after PDSC Onset Temp [5]: 125 C.°; DSC after PDSC Peak Max [5]: 159 °C; PDSC Induction Time [5]: 0.9; DSC Only (dark) Onset Temp [5]: 100, C.° and 155 C.°; PDSC Peak Max [5]: 2.8
CC(C)(C)c1ccc([I+]c2ccc(C(C)(C)C)cc2)cc1.CC(C)(C)c1ccc([I+]c2ccc(C(C)(C)C)cc2)cc1.O=S(=O)([O-])C(F)(F)C(F)(F)C(F)(F)S(=O)(=O)[O-] [PAG1, [(p-(CH3)3C—C6H4)2I^+]2-O3S(CF2)3SO3—]	8	100	553	192	16.2	576	180	230	27	7	60	582	148	15.1	565	150	203	24	209	54	PDSC Induction Time [5]: 1.6; DSC Only (dark) Onset Temp [5]: 100, C.° and 160 C.°; PDSC Peak Max [5]: 4.2; onset of thermal decomposition (TGA) [1]: 224 °C
CC(C)(C)c1ccc([I+]c2ccc(C(C)(C)C)cc2)cc1.O=S(=O)([O-])C(F)(F)C(F)(F)C(F)(F)C(F)(F)C(F)(F)C(F)(F)C(F)(F)C(F)(F)F [DTBPI-PFOS, reference compound]	4	100	566	197	18.9	608	175	238	28.4	4	65	560	155	14.8	583	150	190	22.4	230	24	DSC after PDSC Onset Temp [5]: 140 C.°; DSC after PDSC Peak Max [5]: 163 °C; PDSC Induction Time [5]: 1.1; DSC Only (dark) Onset Temp [5]: 100, C.° and 160 C.°; PDSC Peak Max [5]: 3.2
O=C(O)C(F)(F)C(F)(F)C(F)(F)S(=O)(=O)O [LiO3SCF2CF2CF2CO2Li, LiO3S(CF2)3CO2Li]	–	–	–	–	–	–	–	–	–	–	–	–	–	–	–	–	–	–	–	–	Total F concentration in Liver ([2]; rat, Day 0): 0.5 ppm; Total F concentration in Serum ([2]; rat, Day 0): (ND) (ND = not detectable within limits of test (0.3 ppm)); Total F concentration in Liver ([2]; rat, Day 1): ND (ND = not detectable within limits of test (0.3 ppm)); Total F concentration in Serum ([2]; rat, Day 1): (ND) (ND = not detectable within limits of test (0.3 ppm)); Total F concentration in Liver ([2]; rat, Day 4): ND (ND = not detectable within limits of test (0.3 ppm)); Total F concentration in Serum ([2]; rat, Day 4): (ND) (ND = not detectable within limits of test (0.3 ppm)); Total F concentration in Liver ([2]; rat, Day 8): ND (ND = not detectable within limits of test (0.3 ppm)); Total F concentration in Serum ([2]; rat, Day 8): (ND) (ND = not detectable within limits of test (0.3 ppm)); Total F concentration in Liver ([2]; rat, Day 14): ND (ND = not detectable within limits of test (0.3 ppm)); Total F concentration in Serum ([2]; rat, Day 14): (ND) (ND = not detectable within limits of test (0.3 ppm)); estimated half life of elimination via the urinary route ([2]; rat, single oral dose): less than 28 hours; parent compound recovered in the urine ([2]; rat, single oral dose): greater than 96%; bioelimination compared to PFOS [2]: more readily bioeliminate compared to PFOS
